Measured values as given in patent US9840481B2, “Allosteric modulators of nicotinic acetylcholine receptors” (MERCK SHARP & DOHME CORP., priority 2016, dated 2017).
pEC50: −log10 of the molar value. Like-named read-outs stand apart in the source and are kept apart here.

Biological target: T1, human α7 nAChR stably expressed in a HEK cell line (with human RIC-3) (Homo sapiens, UniProt P36544)
T1 construct: PrecisION hnAChR α7/RIC-3
Assay: Automated patch-clamp electrophysiology functional assay (Assay A), IonFlux HT, whole-cell population patch
Type: cell-based
Method in brief: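 Whole-cell population patch clamp (IonFlux HT) used HEK cells stably co-expressing human α7 and RIC-3, held at −60 mV at room temperature. Compounds were applied alone (agonism) or with 40 μM acetylcholine (potentiation), three ascending concentrations per recording. Currents were quantified relative to a 40 μM acetylcholine reference response, giving EC50.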

[1] = automated patch-clamp electrophysiology functional assay (Assay A), potency class by EC50, read-out: α7 nAChR Potency
[2] = electrophysiology EC50, HEK cells expressing human α7/RIC-3, 40 μM acetylcholine, holding potential −60 mV, room temperature, read-out: α7 nAChR EC50

T1 sequence (P36544 23-502): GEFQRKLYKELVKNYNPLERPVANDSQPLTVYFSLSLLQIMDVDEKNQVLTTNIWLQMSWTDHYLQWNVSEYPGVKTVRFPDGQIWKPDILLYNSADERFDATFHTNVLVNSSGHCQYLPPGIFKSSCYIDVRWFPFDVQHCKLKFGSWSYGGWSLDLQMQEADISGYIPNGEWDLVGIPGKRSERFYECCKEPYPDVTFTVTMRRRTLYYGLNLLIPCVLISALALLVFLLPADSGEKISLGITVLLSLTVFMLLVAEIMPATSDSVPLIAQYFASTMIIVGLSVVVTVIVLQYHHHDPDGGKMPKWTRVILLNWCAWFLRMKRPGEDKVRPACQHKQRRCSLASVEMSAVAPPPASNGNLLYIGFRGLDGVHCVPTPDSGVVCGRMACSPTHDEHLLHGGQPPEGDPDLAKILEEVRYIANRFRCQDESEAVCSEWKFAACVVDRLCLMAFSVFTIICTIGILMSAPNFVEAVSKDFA

pEC50 [1]	pEC50 [2]	SMILES
5.30 to 6.30		CC1(C)[C@@H](c2ccc(S(N)(=O)=O)cc2)[C@@H]1c1noc(CCC2CC2)n1 [Example I33]
6.30 to 7.00		Cc1cccc(F)c1-c1nc([C@H]2[C@H](c3ccc(S(N)(=O)=O)cc3)C2(C)C)no1 [Example H6]
6.30 to 7.00	6.38	CC(C)c1noc([C@H]2[C@H](c3ccc(S(N)(=O)=O)cc3)C2(C)C)n1 [Example D5]
5.30 to 6.30		CC1(C)[C@H](c2ccc(S(N)(=O)=O)cc2)[C@H]1c1nc(C2CCCC2)co1 [Example J8]
5.30 to 6.30	5.96	CC1(C)[C@@H](c2ccc(S(N)(=O)=O)cc2)[C@@H]1c1nnc(-c2cc(F)ccc2C(F)(F)F)o1 [Example G6]
6.30 to 7.00	6.43	CC1(C)[C@@H](c2ccc(S(N)(=O)=O)cc2)[C@@H]1c1nc(-c2ccccc2)no1 [Example C4]
6.30 to 7.00	6.64	NS(=O)(=O)c1ccc([C@@H]2C[C@H]2c2nc(-c3cccc(F)c3)no2)cc1 [Example 4, 4-((1R,2R)-2-(3-(3-Fluorophenyl)-1,2,4-oxadiazol-5-yl)cyclopropyl)benzenesulfonamide]
6.30 to 7.00	6.41	CC(C)c1cnc([C@H]2[C@H](c3ccc(S(N)(=O)=O)cc3)C2(C)C)s1 [Example 21, 4-{(1S,3S)-2,2-Dimethyl-3-[5-(propan-2-yl)-1,3-thiazol-2-yl]cyclopropyl}benzenesulfonamide]
5.30 to 6.30		NS(=O)(=O)c1ccc([C@@H]2C[C@H]2c2nc(C3CC(F)(F)C3)no2)cc1 [Example D19]
5.30 to 6.30	6.14	NS(=O)(=O)c1ccc([C@@H]2[C@@H](c3ncc(C4CCCC4)o3)C2(F)F)cc1 [Example J11]
6.30 to 7.00	6.89	CC1(C)[C@@H](c2ccc(S(N)(=O)=O)cc2)[C@@H]1c1noc(-c2c(F)cc(F)cc2F)n1 [Example H3]
≥ 7.00	7.16	CC1(C)[C@@H](c2ccc(S(N)(=O)=O)cc2)[C@@H]1c1nc(C2CCCC2)no1 [Example D20]
4.30 to 5.30	5.22	Cc1noc([C@H]2[C@H](c3ccc(S(N)(=O)=O)cc3)C2(C)C)n1 [Example D13]
4.30 to 5.30	5.11	Cc1ncccc1-c1noc([C@H]2C[C@@H]2c2ccc(S(N)(=O)=O)cc2)n1 [Example B6]
5.30 to 6.30		CC1(C)[C@H](c2ccc(S(N)(=O)=O)cc2)[C@H]1c1nnc(-c2c(F)cccc2F)o1 [Example F1]
5.30 to 6.30		CC1(C)[C@H](c2ccc(S(N)(=O)=O)cc2)[C@H]1c1nc(C2CC3(CCC3)C2)no1 (some centres unmarked) [Example B15]
6.30 to 7.00	6.62	NS(=O)(=O)c1ccc([C@@H]2C[C@H]2c2noc(N3CCCCC3)n2)cc1 [Example 37, 4-{(1R,2R)-2-[5-(Piperidin-1-yl)-1,2,4-oxadiazol-3-yl]cyclopropyl}benzenesulfonamide]
5.30 to 6.30		CC1(C)[C@@H](c2ccc(S(N)(=O)=O)cc2)[C@@H]1c1nc(C2CCCCC2O)no1 (some centres unmarked) [Example D32]
5.30 to 6.30	5.96	CC1(C)[C@@H](c2ccc(S(N)(=O)=O)cc2)[C@@H]1c1nnc(-c2ccc(F)cc2F)o1 [Example 6, 4-{(1S,3S)-3-[5-(2,4-Difluorophenyl)-1,3,4-oxadiazol-2-yl]-2,2-dimethylcyclopropyl}benzenesulfonamide]

pEC50 [1]	pEC50 [2]	SMILES
5.30 to 6.30		CC1(C)[C@@H](c2ccc(S(N)(=O)=O)cc2)[C@@H]1c1noc(C2(c3cnccn3)CC2)n1 [Example I12]
5.30 to 6.30		CC1(C)[C@@H](c2ccc(S(N)(=O)=O)cc2)[C@@H]1c1noc(-c2nc(-c3ccc(F)cc3)c[nH]2)n1 [Example I17]
5.30 to 6.30		CC(C)c1nnc([C@H]2[C@H](c3ccc(S(N)(=O)=O)cc3)C2(C)C)o1 [Example G9]
6.30 to 7.00	6.33	NS(=O)(=O)c1ccc([C@@H]2[C@@H](c3nc(-c4cccc(F)c4)no3)C2(Cl)Cl)cc1 (relative stereo) [Example 36, 4-{trans-2,2-Dichloro-3-[3-(3-fluorophenyl)-1,2,4-oxadiazol-5-yl]cyclopropyl}benzenesulfonamide]
4.30 to 5.30	5.21	CC(C)Oc1ccc(Cl)cc1-c1noc([C@H]2[C@H](c3ccc(S(N)(=O)=O)cc3)C2(C)C)n1 [Example C3]
5.30 to 6.30	5.77	CC1C(c2ccc(S(N)(=O)=O)cc2)C1c1nc(-c2ccccc2)no1 (single isomer, unassigned) [Example M2]
4.30 to 5.30		NS(=O)(=O)c1ccc([C@@H]2C[C@H]2c2nc(-c3ccccc3)c[nH]2)cc1 [Example K12]
5.30 to 6.30		CC1(C)[C@@H](c2ccc(S(N)(=O)=O)cc2)[C@@H]1c1noc(CC2CCCO2)n1 (some centres unmarked) [Example I15]
6.30 to 7.00	6.46	CC(F)(F)c1nc([C@H]2[C@H](c3ccc(S(N)(=O)=O)cc3)C2(C)C)no1 [Example I16]
5.30 to 6.30		CC(C)(C)c1cnc([C@@H]2C[C@H]2c2ccc(S(N)(=O)=O)cc2)o1 [Example K4]
5.30 to 6.30		NS(=O)(=O)c1ccc([C@@H]2C[C@H]2c2nc(CC3CC3)no2)cc1 [Example D28]
5.30 to 6.30		NS(=O)(=O)c1ccc([C@@H]2C[C@H]2c2nc(-c3c(F)cccc3F)no2)cc1 [Example C9]
4.30 to 5.30		CC(c1nc([C@H]2[C@H](c3ccc(S(N)(=O)=O)cc3)C2(C)C)no1)n1ccnc1 (some centres unmarked) [Example I11]
5.30 to 6.30		CC1(C)[C@H](c2ccc(S(N)(=O)=O)cc2)[C@H]1c1nnc(-c2cccnc2C2CC2)o1 [Example F6]
5.30 to 6.30	5.92	NS(=O)(=O)c1ccc([C@@H]2[C@@H](c3nc(C4CCC4)no3)C2(F)F)cc1 [Example B18]
5.30 to 6.30	6.01	NS(=O)(=O)c1ccc([C@@H]2C[C@H]2c2csc(-c3ccccc3)n2)cc1 [Example 25, 4-[(1R,2R)-2-(2-Phenyl-1,3-thiazol-4-yl)cyclopropyl]benzenesulfonamide]
5.30 to 6.30		CC1(C)[C@@H](c2ccc(S(N)(=O)=O)cc2)[C@@H]1c1noc(-c2cccc3c2OCC(=O)N3)n1 [Example I31]
5.30 to 6.30	5.89	CC1(C)[C@@H](c2ccc(S(N)(=O)=O)cc2)[C@@H]1c1nnc(-c2c(F)cccc2F)o1 [Example G5]
5.30 to 6.30		CC1(C)[C@@H](c2ccc(S(N)(=O)=O)cc2)[C@@H]1c1noc(C(O)C(F)(F)F)n1 (some centres unmarked) [Example I28]

pEC50 [1]	pEC50 [2]	SMILES
6.30 to 7.00		CC1(C)[C@@H](c2ccc(S(N)(=O)=O)cc2)[C@@H]1c1noc(-c2ccc3nc(O)sc3c2)n1 [Example I32]
6.30 to 7.00	6.39	CC(C)(F)c1noc([C@H]2[C@H](c3ccc(S(N)(=O)=O)cc3)C2(F)F)n1 [Example D35]
≥ 7.00	7.03	NS(=O)(=O)c1ccc([C@@H]2C[C@H]2c2nc(-c3ccc(F)cc3)no2)cc1 [Example C14]
6.30 to 7.00		CC1(C)[C@@H](c2ccc(S(N)(=O)=O)cc2)[C@@H]1c1noc(-c2cccc(OC(F)(F)C(F)F)c2)n1 [Example H14]
5.30 to 6.30	6.07	CC(C)(C)c1noc([C@@H]2[C@@H](c3ccc(S(N)(=O)=O)cc3)C2(F)F)n1 [Example B17]
6.30 to 7.00	6.77	CC1(C)[C@@H](c2ccc(S(N)(=O)=O)cc2)[C@@H]1c1noc(C2(c3cc(F)ccc3F)CCC2)n1 [Example I4]
5.30 to 6.30	5.70	CC1(C)[C@@H](c2ccc(S(N)(=O)=O)cc2)[C@@H]1c1ncc(-c2ccccc2)s1 [Example 17, 4-[(1S,3S)-2,2-Dimethyl-3-(5-phenyl-1,3-thiazol-2-yl)cyclopropyl]benzenesulfonamide]
≥ 7.00	7.15	Cc1sc([C@@H]2C[C@H]2c2ccc(S(N)(=O)=O)cc2)nc1-c1ccccc1 [Example 15, 4-[(1R,2R)-2-(5-Methyl-4-phenyl-1,3-thiazol-2-yl)cyclopropyl]benzenesulfonamide]
5.30 to 6.30	5.36	CC1(C)[C@@H](c2ccc(S(N)(=O)=O)cc2)[C@@H]1c1noc(-c2c[nH]c(C3CC3)n2)n1 [Example I8]
5.30 to 6.30		CC1(C)[C@@H](c2ccc(S(N)(=O)=O)cc2)[C@@H]1c1noc(-c2ccc(F)c(OC(F)(F)F)c2)n1 [Example H4]
5.30 to 6.30		NS(=O)(=O)c1ccc([C@H]2C[C@@H]2c2cnc(-c3ccccc3)s2)cc1 [Example L22]
5.30 to 6.30	6.02	CC1(C)[C@@H](c2ccc(S(N)(=O)=O)cc2)[C@@H]1c1nnc(-c2c(F)cccc2C(F)(F)F)o1 [Example G17]
6.30 to 7.00		Cc1cccc(-c2noc([C@@H]3C[C@H]3c3ccc(S(N)(=O)=O)cc3)n2)c1 [Example C18]
5.30 to 6.30	5.54	COc1ccc(Cl)cc1-c1noc([C@@H]2[C@@H](c3ccc(S(N)(=O)=O)cc3)C2(C)C)n1 [Example A1]
5.30 to 6.30	6.00	CC1(C)[C@H](c2ccc(S(N)(=O)=O)cc2)[C@H]1c1nc(C2CCCC2)no1 [Example B9]
6.30 to 7.00	6.34	NS(=O)(=O)c1ccc([C@@H]2C[C@H]2c2ccn(Cc3cccc(F)c3)n2)cc1 [Example 23, 4-{(1R,2R)-2-[1-(3-Fluorobenzyl)-1H-pyrazol-3-yl]cyclopropyl}benzenesulfonamide]
6.30 to 7.00		CC1(C)[C@@H](c2ccc(S(N)(=O)=O)cc2)[C@@H]1c1noc(-c2ccncc2C(F)(F)F)n1 [Example I19]
6.30 to 7.00	6.62	CC1(C)[C@@H](c2ccc(S(N)(=O)=O)cc2)[C@@H]1c1noc(-c2cc(F)cc(F)c2F)n1 [Example H10]
6.30 to 7.00	6.80	NS(=O)(=O)c1ccc([C@@H]2C[C@H]2c2nc(-c3cc(F)ccc3F)no2)cc1 [Example C16]
